Results as given in ChEMBL document CHEMBL2380251, “Antiproliferative activity of 2,3-disubstituted indoles toward apoptosis-resistant cancers cells” (2013).
The source made the active and inactive calls. The rule behind the calls is not given here.

What was measured:
[1] = Growth inhibition of apoptosis-resistance human U373 cells after 72 hrs by MTT assay; format: functional, U-373MG ATCC; details: U373 MG
[2] = tested on: SK-MEL-28; assay: Growth inhibition of apoptosis-resistance human SK-MEL-28 cells after 72 hrs by MTT assay; format: functional; details: SK-MEL-28, 72 h
[3] = tested on: A549; assay: Growth inhibition of apoptosis-resistance human A549 cells after 72 hrs by MTT assay; format: functional; details: A549, 72 h
[4] = tested on: B16-F10; assay: Growth inhibition of apoptosis-resistance mouse B16F10 cells after 72 hrs by MTT assay; format: functional; details: B16-F10, 72 h
[5] = tested on: Hs 683; assay: Growth inhibition of apoptosis-sensitive human Hs 683 cells after 72 hrs by MTT assay; format: functional; details: Hs 683, 72 h
[6] = tested on: SK-MEL-28; assay: Induction of membrane permeabilization in apoptosis-resistance human SK-MEL-28 cells at GI50 after 72 hrs by propidium iodide staining-based flow cytometric analysis; format: functional, cell-based
[7] = tested on: A549; assay: Induction of apoptosis in apoptosis-resistance human A549 cells at GI50 after 72 hrs by phase contrast microscopic analysis; format: functional, cell-based
[8] = tested on: A549; assay: Induction of membrane permeabilization in apoptosis-resistance human A549 cells at GI50 after 72 hrs by propidium iodide staining-based flow cytometric analysis; format: functional, cell-based
[9] = tested on: A549; assay: Cytostatic activity against apoptosis-resistance human A549 cells assessed as cell growth at GI50 after 72 hrs by phase contrast microscopic analysis relative to control; format: functional
[10] = tested on: SK-MEL-28; assay: Induction of apoptosis in apoptosis-resistance human SK-MEL-28 cells at GI50 after 72 hrs by phase contrast microscopic analysis; format: functional, cell-based
[11] = tested on: SK-MEL-28; assay: Cytostatic activity against apoptosis-resistance human SK-MEL-28 cells assessed as cell growth at GI50 after 72 hrs by phase contrast microscopic analysis relative to control; format: functional

SMILES | GI50 [2] | GI50 [3] | GI50 [4] | GI50 [1] | GI50 [5] | Activity [6] | Activity [7] | Activity [8] | Activity [9] | Activity [10] | Activity [11]
CCOC(=O)C1CCN(C(=S)Sc2c(-c3ccc(Br)cc3)[nH]c3ccc(Cl)cc23)CC1 | 39 µM | 34 µM | 21 µM | 33 µM | 36 µM | – | – | – | – | – | –
Cc1ccc2[nH]c(-c3ccc(Cl)cc3)c(-n3nc(C)cc3C)c2c1 | 46 µM | 42 µM | 65 µM | 43 µM | 50 µM | – | – | – | – | – | –
O=C(COc1ccc(Cl)cc1)Nc1c(-c2ccccc2)[nH]c2ccccc12 | 48 µM | 37 µM | 32 µM | 66 µM | 38 µM | – | – | – | – | – | –
CCOC(=O)C1CCN(C(=S)Sc2c(-c3ccc(Br)cc3)[nH]c3ccccc23)CC1 | 36 µM | 34 µM | 27 µM | 35 µM | 36 µM | – | – | – | – | – | –
COc1ccc2[nH]c(-c3ccc(Cl)cc3)c(Oc3ccc(Cl)cc3)c2c1 | 57 µM | 59 µM | 31 µM | 50 µM | 54 µM | – | – | – | – | – | –
Cc1cc(C)n(-c2c(-c3ccccc3)[nH]c3ccccc23)n1 | 84 µM | 61 µM | > 100 µM | 84 µM | 67 µM | – | – | – | – | – | –
Clc1ccc(/N=N/c2c(-c3ccc(Br)cc3)[nH]c3ccccc23)cc1 | 33 µM | 26 µM | 33 µM | 33 µM | 31 µM | – | – | – | – | – | –
O=C(Nc1c(-c2ccccc2)[nH]c2ccc(Cl)cc12)c1cc2ccccc2oc1=O | 55 µM | 37 µM | 27 µM | 66 µM | 45 µM | – | – | – | – | – | –
S=C(Sc1c(-c2ccc(Br)cc2)[nH]c2ccccc12)N1CCOCC1 | 35 µM | 31 µM | 20 µM | 43 µM | 32 µM | – | – | – | – | – | –
Cc1ccc2[nH]c(-c3ccccc3)c(-n3nc(C)cc3C)c2c1 | 33 µM | 26 µM | 40 µM | 10 µM | 29 µM | – | – | – | – | – | –
Cc1cc(C)n(-c2c(-c3cccs3)[nH]c3ccc(Cl)cc23)n1 | 35 µM | 40 µM | 36 µM | 32 µM | 32 µM | – | – | – | – | – | –
Cc1cc(C)n(-c2c(-c3cccs3)[nH]c3ccccc23)n1 | 80 µM | 38 µM | 73 µM | 90 µM | 58 µM | – | – | – | – | – | –
Clc1ccc(Sc2c(-c3ccc(Cl)cc3)[nH]c3ccccc23)cc1 | 34 µM | 27 µM | 28 µM | 28 µM | 31 µM | inactive | inactive | inactive | 30% | inactive | 10%
CCOC(=O)C1CCN(C(=S)Sc2c(-c3ccc(Br)cc3)[nH]c3ccc(C)cc23)CC1 | 52 µM | 37 µM | 37 µM | 68 µM | 34 µM | – | – | – | – | – | –
Clc1ccc(Sc2c(-c3ccc(Cl)cc3)[nH]c3ccc(Cl)cc23)cc1 | 34 µM | 27 µM | 28 µM | 28 µM | 31 µM | – | – | – | – | – | –
O=C(Nc1c(-c2ccccc2)[nH]c2ccccc12)C12CC3CC(CC(C3)C1)C2 | 67 µM | 38 µM | 44 µM | 38 µM | 69 µM | – | – | – | – | – | –
OC1CCCN(C(=S)Sc2c(-c3ccc(Br)cc3)[nH]c3ccc(Cl)cc23)C1 (stereo unspecified) | 34 µM | 29 µM | 37 µM | 39 µM | 31 µM | – | – | – | – | – | –
CCOC(=O)C1CCN(C(=S)Sc2c(-c3ccc(Br)cc3)n(C)c3ccccc23)CC1 | 78 µM | 72 µM | 50 µM | > 100 µM | 85 µM | – | – | – | – | – | –

Compounds with a lower GI50 [2], results first:

GI50 [2] | GI50 [3] | GI50 [4] | SMILES | GI50 [1] | GI50 [5] | Activity [6] | Activity [7] | Activity [8] | Activity [9] | Activity [10] | Activity [11]
31 µM | 29 µM | 39 µM | Cc1cc(C)n(-c2c(-c3ccccc3)[nH]c3ccc(F)cc23)n1 | 47 µM | 32 µM | – | – | – | – | – | –
28 µM | 25 µM | 29 µM | Clc1ccc(Oc2c(-c3ccc(Cl)cc3)[nH]c3ccccc23)cc1 | 25 µM | 28 µM | – | – | – | – | – | –
19 µM | 10 µM | 10 µM | Clc1ccc(Oc2c(-c3ccc(Cl)cc3)[nH]c3ccc(Cl)cc23)cc1 | 13 µM | 13 µM | – | – | – | – | – | –
24 µM | 22 µM | 14 µM | Fc1ccc2[nH]c(-c3ccc(Cl)cc3)c(Oc3ccc(Cl)cc3)c2c1 | 20 µM | 22 µM | – | – | – | – | – | –
28 µM | 31 µM | 40 µM | CCN(CC)C(=S)Sc1c(-c2ccccc2)[nH]c2ccc(Br)cc12 | 36 µM | 26 µM | – | – | – | – | – | –
31 µM | 23 µM | 26 µM | Brc1ccc(/N=N/c2c(-c3ccc(Br)cc3)[nH]c3ccccc23)cc1 | 30 µM | 24 µM | – | – | – | – | – | –
26 µM | 26 µM | 35 µM | Clc1ccc(Sc2c(-c3ccc(Br)cc3)[nH]c3ccccc23)cc1 | 24 µM | 25 µM | – | – | – | – | – | –
30 µM | 30 µM | 35 µM | O=C(CSCc1ccccc1)Nc1c(-c2ccccc2)[nH]c2ccccc12 | 47 µM | 33 µM | – | – | – | – | – | –
13 µM | 9 µM | 22 µM | Cc1onc(-c2c(F)cccc2Cl)c1C(=O)Nc1c(-c2ccccc2)[nH]c2ccccc12 | 24 µM | 15 µM | – | – | – | – | – | –
28 µM | 30 µM | 29 µM | Clc1ccc(Oc2c(-c3ccc(Cl)cc3)[nH]c3ccc(Br)cc23)cc1 | 35 µM | 26 µM | – | – | – | – | – | –
28 µM | 24 µM | 29 µM | OC1CCCN(C(=S)Sc2c(-c3ccc(Br)cc3)[nH]c3ccccc23)C1 (stereo unspecified) | 32 µM | 24 µM | – | – | – | – | – | –
28 µM | 28 µM | 20 µM | CCOC(=O)c1ccc2[nH]c(-c3ccc(Cl)cc3)c(Oc3ccc(Cl)cc3)c2c1 | 35 µM | 24 µM | – | – | – | – | – | –
8 µM | 7 µM | 8 µM | Fc1cccc2c(Oc3ccc(Cl)cc3)c(-c3ccc(Cl)cc3)[nH]c12 | 8 µM | 7 µM | – | – | – | – | – | –
29 µM | 22 µM | 33 µM | CCN(CC)C(=S)Sc1c(-c2ccc(Br)cc2)[nH]c2ccc(Br)cc12 | 9 µM | 22 µM | – | – | – | – | – | –
